Source: patent US20250136602A1, “PROCESS FOR THE PREPARATION OF A PURE AMORPHOUS FORM OF UBROGEPANT” (MSN LABORATORIES PRIVATE LIMITED, F&D CENTER, priority 2021, published 2025)

Assays:
Assay type in all cases: physicochemical
[1] = Long term stability of amorphous Ubrogepant (HPLC purity, PXRD); conditions: long term stability at 25 ± 2° C. under 60 ± 5% humidity condition upto 6 months
Procedure: (§1) Eighth aspect of the first embodiment, the accelerated and long-term stability data of amorphous Ubrogepant of formula-1 is outlined in Table-1 as follows: […]
(§2) Ubrogepant and its related substances were analyzed by HPLC with the following chromatographic conditions: Apparatus: A liquid chromatographic system is to be equipped with variable wavelength UV-Detector and integrator; Column: Xbridge C18 150×4.6 mm, 3.5 μm Ghost-Buster column: Ghost buster 50 mm×4.6 mm; Wavelength: 210 nm; Column temperature: 25° C.; Injection volume: 5 μL; Elution: Gradient; Diluent: Acetonitrile: Water; Needle wash: Diluent.
(§3) The PXRD analysis of compound of the present invention was carried out by using BRUKER-Axis/D8 ADVANCE (DAVINCI) X-Ray diffractometer using CuKα radiation of wavelength 1.5406 A°.

[2] = Accelerated stability of amorphous Ubrogepant (HPLC purity, PXRD); conditions: accelerated stability at 40 ± 2° C. under 75 ± 5% humidity condition upto 6 months
Procedure: as §1, §2, §3

[3] = Polymorphic stress study of amorphous Ubrogepant
Procedure: Ninth aspect of the first embodiment of the present invention, amorphous Ubrogepant is also stable under below Polymorphic stress study conditions:
as §3

C[C@@H]1[C@H](c2ccccc2)C[C@H](NC(=O)c2cnc3c(c2)C[C@@]2(C3)C(=O)Nc3ncccc32)C(=O)N1CC(F)(F)F [Amorphous Ubrogepant, (3′S)—N-((3S,5S,6R)-6-methyl-2-oxo-5-phenyl-1-(2,2,2-trifluoroethyl)piperidin-3-yl)-2′-oxo-1′,2′,5,7-tetrahydrospiro [cyclopenta[b]pyridine-6,3′-pyrrolo[2,3-b]pyridine]-3-carboxamide]
>99.75%: Purity by HPLC [1] | Purity by HPLC [2]
stable: PXRD Result [1] | PXRD Result [2] | Result (polymorphic stability) ([3]; hygroscopicity analysis (75 ± 5% RH), 24 hours) | Result (polymorphic stability) ([3]; stress study under 10 tons pressure, 3 mins) | Result (polymorphic stability) ([3]; thermal analysis at 60° ± 2° C., 24 hours) | Result (polymorphic stability) ([3]; under UV light at 254 nm, 24 hours)
